Reference: patent EP4806899A1, “FUSED RING DERIVATIVE, PREPARATION METHOD THEREFOR AND USE THEREOF IN MEDICINE” (Shanghai Qilu Pharmaceutical Research and Development …, priority 2023, dated 2025)

Columns and labels:
human CYP11B1 enzyme = target: T1, human CYP11B1 enzyme (Homo sapiens, UniProt P15538); experiment: Enzyme inhibition activity assay in G402 cells stably expressing human CYP11B1 (cortisol production from 11-DC, LC/MS); format: cell-based; settings: 1 µM 11-DC, 16 hours, cortisol detected
T1 construct: the ORF of human CYP11B1 or CYP11B2 were transfected into G402 cells; expressed in transfected cells
T1 sequence (P15538 25-503): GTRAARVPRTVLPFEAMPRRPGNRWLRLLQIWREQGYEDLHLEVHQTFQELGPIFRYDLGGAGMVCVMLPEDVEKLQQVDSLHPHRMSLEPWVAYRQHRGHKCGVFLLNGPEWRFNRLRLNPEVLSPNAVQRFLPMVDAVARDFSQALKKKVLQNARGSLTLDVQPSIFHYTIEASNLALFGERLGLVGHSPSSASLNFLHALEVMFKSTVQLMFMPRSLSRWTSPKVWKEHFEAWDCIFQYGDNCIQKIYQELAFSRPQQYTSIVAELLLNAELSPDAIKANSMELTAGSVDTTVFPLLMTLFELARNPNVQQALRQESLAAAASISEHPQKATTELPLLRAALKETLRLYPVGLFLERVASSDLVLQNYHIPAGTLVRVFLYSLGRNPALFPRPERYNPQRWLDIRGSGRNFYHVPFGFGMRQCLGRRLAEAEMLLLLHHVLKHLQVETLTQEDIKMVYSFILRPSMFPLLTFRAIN
In short: (§1)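 G402 cells stably expressing human CYP11B2 or CYP11B1, preincubated 1 h with inhibitor in DMEM/F12 plus 2.5% charcoal-stripped FCS, then 16 h with 1 µM 11-DOC or 1 µM 11-DC. Aldosterone or cortisol quantified by LC/MS; IC50 from four-parameter logistic fit versus uninhibited control.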

[1] = Pharmacokinetic determination in monkeys after gavage administration (P.O.); format: in vivo, Cynomolgus monkeys (Macaca fascicularis); settings: cynomolgus monkey, po, 1 mg/kg, plasma
Description: Cynomolgus monkeys (Macaca fascicularis) were used as test animals to study the pharmacokinetic behavior of the compounds of the present disclosure in plasma following gavage administration (P.O.). Plasma samples were collected at specific time points, compound concentrations in plasma were detected by LC-MS/MS, and pharmacokinetic parameters were calculated to reflect the pharmacokinetics in cynomolgus monkeys.
Cynomolgus monkeys, male, Ankaiyibo (Zhanjiang) Biotechnology Co., Ltd.
After administration to cynomolgus monkeys, venous blood samples of 0.3 mL were collected at 0.25, 0.5, 1, 2, 4, 8, and 24 hours and placed in EDTA-K2 test tubes. Plasma was separated by centrifugation at 4 °C, 4000 g for 5 minutes and stored at -80 °C.
• 1) 50 µL of plasma sample was precipitated by adding 200 µL of acetonitrile, vortex mixed, and centrifuged for 15 minutes. • 2) The processed supernatant was diluted with water and analyzed by LC/MS/MS to determine the concentration of the test compound.
Pharmacokinetic parameters were calculated using WinNonlin 8.3. Cmax represents the maximum plasma concentration, T1/2 represents the terminal elimination half-life, MRTInf represents the mean residence time, and AUC represents the area under the plasma concentration-time curve. Table 6 Pharmacokinetic Parameters of the Compounds of the Present Disclosure in Monkeys

human CYP11B2 enzyme = target: T2, human CYP11B2 enzyme (Homo sapiens, UniProt P19099); experiment: Enzyme inhibition activity assay in G402 cells stably expressing human CYP11B2 (aldosterone production from 11-DOC, LC/MS); format: cell-based; settings: 1 µM 11-DOC, 16 hours, aldosterone detected
T2 construct: the ORF of human CYP11B1 or CYP11B2 were transfected into G402 cells; expressed in transfected cells
T2 sequence (P19099 25-503): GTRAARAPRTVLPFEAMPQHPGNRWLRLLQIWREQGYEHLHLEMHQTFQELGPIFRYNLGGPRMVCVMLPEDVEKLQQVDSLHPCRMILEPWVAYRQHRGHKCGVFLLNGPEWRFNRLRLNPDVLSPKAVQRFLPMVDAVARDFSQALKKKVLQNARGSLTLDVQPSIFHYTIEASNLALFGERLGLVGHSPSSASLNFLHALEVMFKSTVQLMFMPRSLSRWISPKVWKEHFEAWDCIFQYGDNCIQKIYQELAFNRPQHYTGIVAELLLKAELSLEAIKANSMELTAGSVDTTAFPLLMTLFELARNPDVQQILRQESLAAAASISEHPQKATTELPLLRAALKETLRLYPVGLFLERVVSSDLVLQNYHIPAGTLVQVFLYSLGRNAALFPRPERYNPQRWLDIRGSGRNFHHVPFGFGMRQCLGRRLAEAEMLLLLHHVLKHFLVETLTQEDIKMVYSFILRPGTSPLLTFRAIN
In short: as §1

Row | IC50 (human CYP11B1 enzyme) [nM] | Cmax ([1]; in vivo) [nM] | MRT inf ([1]; in vivo) [h] | half-life ([1]; in vivo) [h] | AUC(0-t) at 24 h ([1]; in vivo, read-out: AUC0-24) [µM·h] | IC50 (human CYP11B2 enzyme) [nM] | Cmax ([1]; male) [nM] | MRT inf ([1]; male) [h] | half-life ([1]; male) [h] | AUC(0-t) ([1]; male, read-out: AUC0-24) [µM·h] | Structure (SMILES)
1 | 3680 | 1600 | 8.77 | 7.44 | 12.8 | 12.3 |  |  |  |  | CCC(=O)N[C@@H]1CCOc2c(-c3ccc4c(c3)CCC(=O)N4C)cncc21 [Compound A02-P2]
2 | 2110 |  |  |  |  | 11.1 | 1140 | 13 | 10.5 | 13.5 | [2H]C([2H])([2H])OC(=O)N[C@@H]1CCOc2c(-c3cc(F)c4c(ccc(=O)n4C)c3)cncc21 [Compound A50]
